We go through 1 molecule from ChEMBL document CHEMBL4808216, “Gut-Restricted Selective Cyclooxygenase-2 (COX-2) Inhibitors for Chemoprevention of Colorectal Cancer” (J Med Chem, 2021).

SMILES strings stand for the structures. In brackets after ≈: the same amount, converted by molar mass.

Data set [1] addresses T1, Prostaglandin G/H synthase 2 (Homo sapiens, UniProt P35354).
T1 sequence (P35354 whole entry): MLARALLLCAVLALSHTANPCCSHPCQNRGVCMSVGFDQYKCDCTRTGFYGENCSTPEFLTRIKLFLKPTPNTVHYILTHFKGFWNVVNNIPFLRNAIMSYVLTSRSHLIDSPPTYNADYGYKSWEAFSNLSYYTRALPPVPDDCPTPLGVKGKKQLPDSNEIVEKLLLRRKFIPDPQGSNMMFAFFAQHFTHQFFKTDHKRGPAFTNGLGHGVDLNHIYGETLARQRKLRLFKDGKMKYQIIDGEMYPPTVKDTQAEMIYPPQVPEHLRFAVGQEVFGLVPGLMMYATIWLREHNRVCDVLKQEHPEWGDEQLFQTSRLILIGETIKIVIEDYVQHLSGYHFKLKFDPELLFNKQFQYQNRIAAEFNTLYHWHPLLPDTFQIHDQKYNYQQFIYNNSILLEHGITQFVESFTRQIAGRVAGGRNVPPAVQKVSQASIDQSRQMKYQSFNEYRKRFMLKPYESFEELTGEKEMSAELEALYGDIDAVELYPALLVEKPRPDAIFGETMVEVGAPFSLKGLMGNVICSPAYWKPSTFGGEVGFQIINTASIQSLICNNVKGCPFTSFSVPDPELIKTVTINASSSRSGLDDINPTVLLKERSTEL
Briefly: Inhibition of human recombinant COX-2 assessed as reduction in peroxidase activity using arachidonic acid as substrate preincubated for 60 mins followed by substrate addition for 2 secs by ADPH based fluorometric analysis.

The nature of data set [2]: Half life in human liver microsomes. Format: ADME, Microsome. In general terms: Microsomes from liver hold many membrane-bound enzymes, among them those of drug oxidation.
The nature of data set [3]: Half life in mouse hepatocytes. Type of data set: ADME, cell-based, Hepatocyte.
A short description of data set [4]: Volume of distribution at steady state in C57BL/6J mouse at 2 mg/kg, iv measured after 0.08 to 24 hrs. Format: ADME, organism-based. Particulars: C57BL/6J, in vivo, time 0.08-24 hrs, read-out: Vdss.
A short description of data set [5]: Ratio of drug concentration in C57BL/6J mouse colon to plasma at 10 mg/kg, po measured after 4 hr by liquid chromatographic triple-quadrupole mass spectrometric method. Format: ADME, organism-based. Particulars: C57BL/6J, colon / plasma.
Data set [6] is described as follows: Tmax in C57BL/6J mouse at 10 mg/kg, po administered as cassette dose measured at 4 hrs by liquid chromatographic triple-quadrupole mass spectrometric method. Type of data set: ADME, organism-based. The conditions noted are these: in vivo.
Data set [7] is described as follows: Protein binding in human plasma assessed as unbound fraction. Format: ADME, cell-free.
Data set [8] is described as follows: Equilibrium solubility of compound in FASSIF at pH 6.5. Type of data set: physicochemical.
For data set [9], the system named is Mus musculus. Briefly: Antitumor activity in C57BL/6J mouse model of spontaneous GI-tract tumor Apc-min assessed as reduction in total ileum polyp area at 300 mg/kg, po administered as suspension for 10 to 12 weeks. Type of data set: functional. Particulars: time 10-12 weeks, read-out: TGI.
A short description of data set [10]: Oral bioavailability in C57BL/6J mouse at 10 mg/kg measured up to 24 hrs by LC-MS analysis. Format: ADME, organism-based. The conditions noted are these: in vivo.
The species named for data set [11] is Homo sapiens. The data set is described as follows: Selectivity ratio of IC50 for COX1 in human whole blood assessed as reduction in calcium ionophore-stimulated TXB2 production to IC50 for COX2 in human whole blood assessed as reduction in LPS stimulated PGE2 production. Format: tissue-based.
Data set [12] deals with T2, Prostaglandin G/H synthase 2 (Mus musculus, UniProt Q05769).
T2 sequence (Q05769 whole entry): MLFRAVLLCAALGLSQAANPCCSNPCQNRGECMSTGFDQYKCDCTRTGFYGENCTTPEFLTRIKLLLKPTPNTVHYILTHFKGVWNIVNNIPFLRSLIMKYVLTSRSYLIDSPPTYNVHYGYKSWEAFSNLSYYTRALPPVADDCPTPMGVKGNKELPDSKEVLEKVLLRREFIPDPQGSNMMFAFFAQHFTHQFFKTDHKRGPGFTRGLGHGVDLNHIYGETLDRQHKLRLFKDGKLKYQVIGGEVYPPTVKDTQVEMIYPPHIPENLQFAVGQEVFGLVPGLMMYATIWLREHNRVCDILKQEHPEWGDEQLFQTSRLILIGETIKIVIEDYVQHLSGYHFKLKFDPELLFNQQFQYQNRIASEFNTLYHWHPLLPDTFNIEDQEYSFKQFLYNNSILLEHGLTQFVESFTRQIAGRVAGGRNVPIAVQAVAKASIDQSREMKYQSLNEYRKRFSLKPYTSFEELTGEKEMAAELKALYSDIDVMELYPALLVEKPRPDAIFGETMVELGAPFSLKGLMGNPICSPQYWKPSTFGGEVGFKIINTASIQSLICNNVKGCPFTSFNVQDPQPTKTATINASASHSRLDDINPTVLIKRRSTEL
The data set is described as follows: In vivo inhibition of COX2 in po dosed C57BL/6J mouse model of spontaneous GI-tract tumor Apc-min assessed as chemopreventive effect by measuring reduction in polyp area and relevant plasma exposures. Format: functional, organism-based.

For data set [13], the system named is Mus musculus. The data set is described as follows: Antitumor activity in po dosed C57BL/6J mouse model of spontaneous GI-tract tumor Apc-min assessed as reduction in total ileum polyp area administered as suspension for 10 to 12 weeks. Type of data set: functional, organism-based. The conditions noted are these: time 10-12 weeks.

As usually defined, the IC50 is the concentration that inhibits the measured activity by half. The half-life is how long it takes for the measured level to halve. As usually defined, the Kp is tissue or fluid exposure divided by exposure in the circulation. A word on the Tmax: it is the time at which the peak concentration occurs. Broadly, the fraction unbound is free concentration divided by total concentration. A word on the solubility (thermodynamic): it is solubility found after equilibrating the solid with the medium. One may read the bioavailability as the share of a dose that reaches the circulation, judged against a reference dose that is usually intravenous. Higher therefore signals good availability.

With `CCCOc1nc(OCC(C)(C)O)c(-c2ccc(S(C)(=O)=O)cc2)cc1CO`, the IC50 was 0.84 µM in data set [1] and 0.035 µM in data set [12]. The half-life was over 184 min in data set [2] and 3 min in data set [3]. Besides, the Vd in [4] worked out at 3.05 L/kg. Also, in data set [5], the Kp at 4 h turned out to be 1280. Moreover, the Tmax in [6] worked out at 15 min. In addition, the fraction unbound in data set [7] worked out at 0.016. This molecule registered a solubility (thermodynamic) in [8] of 25 µM (≈ 10.2 µg/mL). In addition, in [9], the inhibition in vivo at 300 mg/kg came out at 41.9%. In data set [10], the bioavailability was 4.25%. In addition, the Ratio IC50 in data set [11] came out at 80. In data set [13], the Activity entry is “Dose-Dependent Effect”.
